This note sets out measurements from US20170247336A1 (MERCK SHARP & DOHME CORP., priority 2014, published 2017).

pIC50: −log10 of the molar value. Where a name gives a salt, the structure may show the parent alone.

T1 sequence (Q9GZT9 whole entry): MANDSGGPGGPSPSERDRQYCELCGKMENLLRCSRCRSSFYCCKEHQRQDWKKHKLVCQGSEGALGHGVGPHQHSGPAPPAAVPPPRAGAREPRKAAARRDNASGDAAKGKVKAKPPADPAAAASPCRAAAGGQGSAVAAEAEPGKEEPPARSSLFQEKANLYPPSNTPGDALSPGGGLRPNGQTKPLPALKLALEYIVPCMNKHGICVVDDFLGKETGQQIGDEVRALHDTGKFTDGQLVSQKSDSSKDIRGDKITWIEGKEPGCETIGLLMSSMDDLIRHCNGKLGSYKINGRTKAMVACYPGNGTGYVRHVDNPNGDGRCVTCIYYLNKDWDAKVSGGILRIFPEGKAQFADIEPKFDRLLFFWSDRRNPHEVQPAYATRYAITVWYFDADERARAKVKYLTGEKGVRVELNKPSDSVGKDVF

This test has as its target T1, human HIF-PHD2 (Homo sapiens, UniProt Q9GZT9).
T1 construct: FLAG-tagged full length PHD2 expressed in and purified from baculovirus-infected Sf9 cells; FLAG; made in house; host or cells: baculovirus-infected Sf9 cells
The test is described as follows: HIF-PHD2 inhibition: hydroxylation of HIF-1α peptide, time resolved fluorescence. The test is classed as biochemical. The settings on record: FLAG-tagged full length PHD2; 0.2 μM 2-oxoglutarate, 0.5 μM HIF-1α peptide. On the procedure:
To each well of a 384-well plate, 1 μL of test compounds in DMSO (final concentration ranging from 0.3 nM to 10 μM) were added into 20 μl of assay buffer (50 mM Tris pH 7.4/0.01% Tween-20/0.1 mg/ml bovine serum albumin/10 μM ferrous sulfate/1 mM sodium ascorbate/20 μg/ml catalase) containing 0.15 μg/ml FLAG-tagged full length PHD2 expressed in and purified from baculovirus-infected Sf9 cells. After a 5 min preincubation at room temperature, the enzymatic reactions were initiated by the addition of 4 μL of substrates {final concentrations of 0.2 μM 2-oxoglutarate and 0.5 μM HIF-1α peptide biotinyl-DLDLEMLAPYIPMDDDFQL (SEQ ID NO: 1)}. After incubation for 45 minutes at room temperature, the reactions were terminated by the addition of a 25 μL quench/detection mix to a final concentration of 1 mM ortho-phenanthroline, 0.1 mM EDTA, 0.5 nM anti-(His)6 LANCE reagent (Perkin-Elmer Life Sciences), 100 nM AF647-labeled streptavidin (Invitrogen), and 2 μg/ml (His)6-VHL complex {S. Tan Protein Expr. Purif. 21, 224-234 (2001)} and the signals were developed for 30 minutes at room temperature. The ratio of time resolved fluorescence signals at 665 and 620 nm was determined, and percent inhibition was calculated relative to the high control samples (DMSO treated) run in parallel, after background subtraction.
In turn, `N#Cc1ccc(C(NC(=O)c2cnc(C(=O)NC[C@@H](O)C(=O)O)nc2O)c2ccccc2)cc1` (single isomer, unassigned) [Example 8] showed a pIC50 of 8.17. The compound `N#Cc1ccc(C(NC(=O)c2cnc(C(=O)NC[C@@H](O)C(=O)O)nc2O)c2ccccc2)cc1` (single isomer, unassigned) [Example 9] had a pIC50 of 7.57. In the case of `COc1ccc(C(NC(=O)c2cnc(C(=O)NCC(C)C(=O)O)nc2O)c2ccc(OC)cc2)cc1` (single isomer, unassigned) [Example 18, (R) or (S)-3-(5-((bis(4-methoxyphenyl)methyl)carbamoyl)-4-hydroxypyrimidine-2-carboxamido)-2-methylpropanoic acid], the pIC50 is 7.82. Turning to `COc1ccc(-c2ccc(C(C)(C)NC(=O)c3cnc(C(=O)NCC(C)C(=O)O)nc3O)cn2)cc1` (single isomer, unassigned) [Example 19, (R) or (S)-3-(4-hydroxy-5-((2-(6-(4-methoxyphenyl)pyridin-3-yl)propan-2-yl)carbamoyl)pyrimidine-2-carboxamido)-2-methylpropanoic acid], the pIC50 was 8.55. `CC(CNC(=O)c1ncc(C(=O)NC(C)(C)c2ccc(-c3ccc(C(F)(F)F)cc3)cc2)c(O)n1)C(=O)O` (single isomer, unassigned) [Example 20, (R) or (S)-3-(4-hydroxy-5-((2-(4′-(trifluoromethyl)-[1,1′-biphenyl]-4-yl)propan-2-yl)carbamoyl)pyrimidine-2-carboxamido)-2-methylpropanoic acid] had a pIC50 of 8.09.

Consider `CC(CNC(=O)c1ncc(C(=O)NC(C)(C)c2ccc(-c3cccc4cnccc34)cc2)c(O)n1)C(=O)O` (single isomer, unassigned) [Example 21, (R) or (S)-2-((2-carboxypropyl)carbamoyl)-6-hydroxy-5-((2-(4-(isoquinolin-5-yl)phenyl)propan-2-yl)carbamoyl)pyrimidin-1-ium formate], for which the pIC50 is 8.32. `CC(CNC(=O)c1ncc(C(=O)NC(C)(C)c2ccc(-c3cccnc3)cc2)c(O)n1)C(=O)O` (single isomer, unassigned) [Example 22, (R) or (S)-2-((2-carboxypropyl)carbamoyl)-6-hydroxy-5-((2-(4-(pyridin-3-yl)phenyl)propan-2-yl)carbamoyl)pyrimidin-1-ium formate]: the pIC50 is 8.52. The compound `Cc1cc(C#N)ccc1-c1ccc(C(C)(C)NC(=O)c2cnc(C(=O)NCC(C)C(=O)O)nc2O)cc1` (single isomer, unassigned) [Example 23, (R) or (S)-3-(5-((2-(4′-cyano-2′-methyl-[1,1′-biphenyl]-4-yl)propan-2-yl)carbamoyl)-4-hydroxypyrimidine-2-carboxamido)-2-methylpropanoic acid] had a pIC50 of 7.92. For `CC(CNC(=O)c1ncc(C(=O)NC(C)(C)c2ccc(-c3ccc(F)cc3)cc2)c(O)n1)C(=O)O` (single isomer, unassigned) [Example 24, (R) or (S)-3-(5-((2-(4′-fluoro-[1,1′-biphenyl]-4-yl)propan-2-yl)carbamoyl)-4-hydroxypyrimidine-2-carboxamido)-2-methylpropanoic acid], the pIC50 was 8.32. The value for `CC(CNC(=O)c1ncc(C(=O)NC(C)(C)c2ccc(-c3ccc(OC(F)(F)F)cc3)cc2)c(O)n1)C(=O)O` (single isomer, unassigned) [Example 25, (R) or (S)-3-(4-hydroxy-5-((2-(4′-(trifluoromethoxy)-[1,1′-biphenyl]-4-yl)propan-2-yl)carbamoyl)pyrimidine-2-carboxamido)-2-methylpropanoic acid] was 7.89. The value for `COc1ccc(-c2ccc(C(C)(C)NC(=O)c3cnc(C(=O)NCC(C)C(=O)O)nc3O)cc2)cn1` (single isomer, unassigned) [Example 26, (R) or (S)-2-((2-carboxypropyl)carbamoyl)-6-hydroxy-5-((2-(4-(6-methoxypyridin-3-yl)phenyl)propan-2-yl)carbamoyl)pyrimidin-1-ium chloride] was 8.47; that for `CC(CNC(=O)c1ncc(C(=O)NC(C)(C)c2ccc(-c3cc[nH]n3)cc2)c(O)n1)C(=O)O` (single isomer, unassigned) [Example 27, (R) or (S)-5-((2-(4-(1H-pyrazol-3-yl)phenyl)propan-2-yl)carbamoyl)-2-((2-carboxypropyl)carbamoyl)-6-hydroxypyrimidin-1-ium formate] was 8.24; that for `CC(CNC(=O)c1ncc(C(=O)NC(C)(C)c2ccc(-c3ccc(Cl)cc3)cc2)c(O)n1)C(=O)O` (single isomer, unassigned) [Example 28, (R) or (S)-3-(5-((2-(4′-chloro-[1,1′-biphenyl]-4-yl)propan-2-yl)carbamoyl)-4-hydroxypyrimidine-2-carboxamido)-2-methylpropanoic acid] was 8.23.

`CC(CNC(=O)c1ncc(C(=O)NC2(c3ccc(-c4ccc(Cl)cc4)cc3)CC2)c(O)n1)C(=O)O` (single isomer, unassigned) [Example 30, (R) or (S)-3-(5-((1-(4′-chloro-[1,1′-biphenyl]-4-yl)cyclopropyl)carbamoyl)-4-hydroxypyrimidine-2-carboxamido)-2-methylpropanoic acid] showed a pIC50 of 7.89. The compound `CC(CNC(=O)c1ncc(C(=O)NC2(c3ccc(-c4cccc5cnccc45)cc3)CC2)c(O)n1)C(=O)O` (single isomer, unassigned) [Example 31, (R) or (S)-2-((2-carboxypropyl)carbamoyl)-6-hydroxy-5-((1-(4-(isoquinolin-5-yl)phenyl)cyclopropyl)carbamoyl)pyrimidin-1-ium formate] showed a pIC50 of 8.00. The value for `CC(CNC(=O)c1ncc(C(=O)NC2(c3ccc(-c4ccc(F)cc4)cc3)CC2)c(O)n1)C(=O)O` (single isomer, unassigned) [Example 32, (R) or (S)-3-(5-((1-(4′-fluoro-[1,1′-biphenyl]-4-yl)cyclopropyl)carbamoyl)-4-hydroxypyrimidine-2-carboxamido)-2-methylpropanoic acid] was 7.92. On to `COc1ccc(-c2ccc(C3(NC(=O)c4cnc(C(=O)NCC(C)C(=O)O)nc4O)CC3)cc2)cn1` (single isomer, unassigned) [Example 33, (R) or (S)-2-((2-carboxypropyl)carbamoyl)-6-hydroxy-5-((1-(4-(6-methoxypyridin-3-yl)phenyl)cyclopropyl)carbamoyl)pyrimidin-1-ium chloride], for which the pIC50 is 8.37. The compound `CNc1ccc(C(NC(=O)c2cnc(C(=O)NCCC(=O)O)nc2O)c2ccc(OC)cc2)cn1` (single isomer, unassigned) [Example 34, (R) or (S)-3-(4-hydroxy-5-(((4-methoxyphenyl)(6-(methylamino)pyridin-3-yl)methyl)carbamoyl)pyrimidine-2-carboxamido)propanoic acid] gave a pIC50 of 9.24. The value for `CC(O)(CNC(=O)c1ncc(C(=O)NC(c2ccccc2)c2ccccc2)c(O)n1)C(=O)O` (centres unmarked) [Example 3, 3-(5-(Benzhydrylcarbamoyl)-4-hydroxypyrimidine-2-carboxamido)-2-hydroxy-2-methylpropanoic acid] was 8.39; that for `O=C(NCC(O)C(=O)O)c1ncc(C(=O)NC(c2ccccc2)c2ccccc2)c(O)n1` (centres unmarked) [Example 5, 3-(5-(benzhydrylcarbamoyl)-4-hydroxypyrimidine-2-carboxamido)-2-hydroxypropanoic acid] was 9.05.

With `COc1ccc([C@@H](NC(=O)c2cnc(C(=O)NC[C@@H](O)C(=O)O)nc2O)c2ccccc2)cc1` [Example 10, (R)-2-Hydroxy-3-(4-hydroxy-5-(((S)-(4-methoxyphenyl) (phenyl)methyl)carbamoyl)pyrimidine-2-carboxamido)propanoic acid], the pIC50 was 8.17. For `CC(C)(NC(=O)c1cnc(C(=O)NC[C@@H](O)C(=O)O)nc1O)c1ccc(C(F)(F)F)cc1` [Example 11, (R)-2-hydroxy-3-(4-hydroxy-5-((2-(4-(trifluoromethyl)phenyl)propan-2-yl)carbamoyl)pyrimidine-2-carboxamido)propanoic acid] the value was 8.82.

`COc1ccc([C@H](NC(=O)c2cnc(C(=O)NC[C@@H](O)C(=O)O)nc2O)c2ccccc2)cc1` [Example 12, (R)-2-hydroxy-3-(4-hydroxy-5-(((R)-(4-methoxyphenyl)(phenyl)methyl)carbamoyl)pyrimidine-2-carboxamido)propanoic acid]: the pIC50 is 8.06. `CC(CNC(=O)c1ncc(C(=O)NC(c2ccc(Cl)cc2)c2ccc(Cl)cc2)c(O)n1)C(=O)O` (centres unmarked) [Example 13]: the pIC50 was 8.31. For `COc1ccc([C@@H](NC(=O)c2cnc(C(=O)NCCC(=O)O)nc2O)c2ccc(Cl)cc2)cc1` [Example 35, (R)-3-(5-(((4-chlorophenyl)(4-methoxyphenyl)methyl)carbamoyl)-4-hydroxypyrimidine-2-carboxamido)propanoic acid] the value was 9.05; for `COc1ccc(C(NC(=O)c2cnc(C(=O)NCCC(=O)O)nc2O)c2ccccc2)cc1` (centres unmarked) [Example 38], 9.05.
